Patent publication US8529872B2, “Seeds and markers for use in imaging” (Board of Regents, The University of Texas System, priority 2007, dated 2013)
Read-outs that look alike come from different tables or passages of the source.

Columns and labels:
[1] = cited from earlier work
[2] = Temporal stability of R1 of the cobalt complex; type: physicochemical; details: taken 54 days apart
[3] = Magnetic properties of contrast agent solutions by VSM; type: physicochemical
Experimental: The magnetic properties of contrast agent solutions were determined by VSM (Vibrating Sample Magnetometer) at room temperature and magnetic field up to 1.5 T.
FIG. 20a-20d show the magnetic properties of various aqua solutions of Co/glycine with concentration 1, 3, 5, 8 and 10%.

[4] = Surface tension of contrast agents (Fisher 21 tensiometer); type: physicochemical
Description: The Fisher 21 tensiometer was used to measure surface tension of contrast agents with accuracy t within +/−0.25%.

[5] = MR relaxation measurements of C4 complex at 1.5 T; type: physicochemical; details: for T1 (ms) μ / T2 (ms) μ: 1.5T, 23° C.
Experimental: (§1) MR imaging measurements were performed on a 1.5 T clinical scanner (Excite HD, GEHT, Waukesha, Wis.) to characterize the relaxation properties of the new cobalt complex after each new modification of the C4 chemistry was made. Several iterations were performed before obtaining a stable sample. Additional measurements at 3.0 T (Excite HD, GEHT, Waukesha, Wis.) were made once the design of the C4 complex was stable. Each session or iteration (n=5) took approximately 2 hours to collect all the relaxation data.
[…] Theses solutions were placed in a water bath and imaged at room temperature (23° C.). Experiments were performed to ascertain the spin-lattice relaxivity (R1), spin-spin relaxivity (R2) and true spin-spin relaxivity (R2*) at 1.5 T and 3 T using a volume knee coil to excite and receive the MR signal.
(§2) R1 measurements were performed using a spin-echo inversion recovery (SE-IR) sequence with parameters: Inversion Time (TI)={0.05, 0.1, 0.2, 0.3, 0.4, 0.5, 0.6, 0.7, 0.8, 0.9, 1.0, 1.2, 1.4, 1.6, 1.8, 2.0} sec, Pulse Repetition Time (TR)=5000, Time to Echo (TE)=10 ms, slice thickness=3 mm, acquisition matrix=256 (frequency)×128 (phase), receiver bandwidth (rBW)=±15 kHz and the number of excitations (NEX)=1.
(§3) R2 measurements were carried out using an SE sequence with parameters: TE={15, 20, 40, 60, 100, 150, 200, 250, 300 and 500 ms}, TR=5000 ms, slice thickness=3 mm, matrix size=256×128, rBW=±15 kHz and NEX=1.
(§4) The slopes of R1 and R2 curve versus concentration were used to determine the relaxivity (r1 and r2) in mM^−1 s^−1 as shown in the following tables. A weighted least-linear squares fitting routine was written in MATLAB to calculate the fit parameters accounting for the uncertainty as well as calculating the net uncertainty in the derived measurement. Note that in the final quantitative analysis, R2* measurements are excluded since the samples seemed to have interfering magnetic effects that could alter results.

[6] = MR relaxation measurements of C4 complex at 3.0 T; type: physicochemical; details: 3.0T; for T1 (ms) μ / T2 (ms) μ: 23° C.
Experimental: as §1
Concentrations of the complex were prepared in 0.1%, 0.3%, 0.5%, 0.75% and 1.0% solutions provided by the UH group. Theses solutions were placed in a water bath and imaged at room temperature (23° C.). Experiments were performed to ascertain the spin-lattice relaxivity (R1), spin-spin relaxivity (R2) and true spin-spin relaxivity (R2*) at 1.5 T and 3 T using a volume knee coil to excite and receive the MR signal.
as §2, §3, §4

[7] = Octanol-water partition coefficient; type: physicochemical
Experimental: […] The resulting biphasic solution was shaken vigorously for two hours at which point 400 μL of the octanol layer and 400 μL of the water layer were removed. The solvent from each sample was removed under reduced pressure and the mass of the compound in the octanol sample was divided by the mass of the compound in the water sample. This experiment was repeated in triplicate, and the results were averaged to give the Log (Poct/wat) values. All complexes were completely soluble in the mixture of octanol and water.

[8] = Characterization of the C4 complex at 7 T; type: physicochemical; parameters: T2 / T1 / T2* / T2*-2: unit not given here; details: for T2*-2: second T2* measurement
Experimental: […] Characteristic T1, T2, and T2* relaxation times of the preparations were measured at each concentration. T1 measurements were made using a fast spin-echo saturation-recovery sequence (TE=63 ms; TR=400 ms, 500 ms, 1000 ms, 1500 ms, 2500 ms, 500 ms; FOV=3.2 cm×3.2 cm; matrix=64×64; echo train length=12; slice thickness=1 mm). T2 measurements were made using a CPMG multi-spin-echo sequence (TE=n×15 ms, 1≦n≦24; TR=1100 ms). T2* measurements were made using a multi-gradient echo sequence (TE=1.5 ms+n×[…], 0≦n≦15; TR=500 ms, 4000 ms). The image matrix and slice prescription for all measurements were kept constant. The characteristic T1, T2, and T2* relaxation time constants of each compartment were measured using Paravision 4.0, and the relaxivities of the contrast agent were estimated by fitting measured data to the Solomon-Bloembergen-Morgan model using Matlab.

[9] = pH of aqua solution of contrast agent; type: physicochemical
Experimental: For preparation of aqua solution of contrast agent, the as-synthesized cobalt/glycine crystallites were dissolved in distillated water (0.3-10 wt %) and stirred at the room temperature with a magnetic stir bar for 1 h and then sonicated for 30 min.
The value of pH varied from 2.6 to 6.5.

[10] = Viscosity of contrast agent solution (Brookfield viscometer); type: physicochemical; details: room temperature
Experimental: Viscosity of contrast agent solution was measured at room temperature by using Brookfield digital viscometer DV-II.

[11] = T1 relaxivity of Gd-chelated polymeric contrast agent at 1.5 T; type: physicochemical
Description: A Gd-chelated polymeric MRI contrast agent 20 (Gd Hydrogel) based on a biodegradable, biocompatible poly(L-glutamic acid) (L-PG) backbone was also synthesized and characterized. […] “Blooming” occurs with MR imaging when the contrast agent 20 is encapsulated by titanium and cannot be visualized due to the susceptibility artifacts
To characterize the contrast agents 20, they were filtrated and injected into the glass capillary tube with 4 mm in length and OD=0.8 mm, ID=0.5 mm with volume of 0.5-1 μL. Water-proton relaxivities were measured at variable temperature (278-335 K), and as a function of magnetic field (1.5 T, 3 T, 4.7 T, and 7 T). Slight differences between the relaxivities of these agents at different field strengths will require slightly different concentrations for optimal visibility at these field strengths. By pH dependency of the proton relaxivities we will evaluate the synthesized CAM for pH-responsive MRI contrast agent 20 applications. Although 4.7 T is not a field strength commonly associated with clinical MRI, it complements the data collected at more clinically relevant field strengths and helps to identify trends in agent relaxivity.

[12] = 1.5 T (23° C.), De Bazelaire 2004

CNC[C@H](O)[C@@H](O)[C@H](O)[C@H](O)CO.CNC[C@H](O)[C@@H](O)[C@H](O)[C@H](O)CO.O=C([O-])CN(CCN(CC(=O)[O-])CC(=O)O)CCN(CC(=O)[O-])CC(=O)O.[Gd+3] [Magnevist]
r2/r1 [1, 12]: 1.12±0.01 | relaxivity r1 [1, 12]: 4.68 ± 0.06 mM/s | relaxivity r2 [1, 12]: 5.57 ± 0.07 mM/s | relaxivity ([1]; 1.5 T in phosphate-buffered saline, Unger 1999): 4.1 mM⁻¹ s⁻¹ | T1 relaxivity ([1]; 7 T, for reference): approximately 5.3 (mM·s)^−1

(CoCl2)n(C2H5NO2)1-n [Example C4]
degradation or breakdown over time: difference between two R1 measurements [2]: no statistically significant difference was observed | Magnetic properties ([3]; contrast agent solution 0.5 %): paramagnetic | Magnetic properties ([3]; contrast agent solution 5 %): paramagnetic | Surface tension ([4]; contrast agent solution 0.5 %): 72.8 dynes/cm | Surface tension ([4]; contrast agent solution 5 %): 73.6 dynes/cm | T1 relaxation time ([5]; 0.1%-8.25 mM): 782 ms | relaxivity r1 ([5]; 1.5 T): 0.086 ± 0.006 mM/s | relaxivity r1, Slope μ ([5]; 1.5 T): 0.086 mM⁻¹ s⁻¹ | relaxivity r2 ([5]; 1.5 T): 0.097 ± 0.010 mM/s | T1 (ms) μ ([5]; 0.10 % Wt, 8.25 mM): 782.0 ms | T2 (ms) μ ([5]; 0.10 % Wt, 8.25 mM): 836.0 ms | T1 (ms) μ ([5]; 0.30 % Wt, 24.76 mM): 379.0 ms | T2 (ms) μ ([5]; 0.30 % Wt, 24.76 mM): 354.0 ms | T1 (ms) μ ([5]; 0.50 % Wt, 41.27 mM): 235.0 ms | T2 (ms) μ ([5]; 0.50 % Wt, 41.27 mM): 215.0 ms | T1 (ms) μ ([5]; 0.75 % Wt, 61.90 mM): 172.0 ms | T2 (ms) μ ([5]; 0.75 % Wt, 61.90 mM): 153.0 ms | T1 (ms) μ ([5]; 1.00 % Wt, 82.53 mM): 130.0 ms | T2 (ms) μ ([5]; 1.00 % Wt, 82.53 mM): 120.0 ms | T1 relaxation time ([5]; 10%-825 mM): 61 ms | relaxivity r1, Slope μ [6]: 0.070 mM⁻¹ s⁻¹ | T1 (ms) μ ([6]; 0.10 % Wt, 8.25 mM): 866.0 ms | T2 (ms) μ ([6]; 0.10 % Wt, 8.25 mM): 530.0 ms | T1 (ms) μ ([6]; 0.30 % Wt, 24.76 mM): 432.0 ms | T2 (ms) μ ([6]; 0.30 % Wt, 24.76 mM): 215.0 ms | T1 (ms) μ ([6]; 0.50 % Wt, 41.27 mM): 288.0 ms | T2 (ms) μ ([6]; 0.50 % Wt, 41.27 mM): 124.0 ms | T1 (ms) μ ([6]; 0.75 % Wt, 61.90 mM): 202.0 ms | T2 (ms) μ ([6]; 0.75 % Wt, 61.90 mM): 104.0 ms | T1 (ms) μ ([6]; 1.00 % Wt, 82.53 mM): 164.0 ms | T2 (ms) μ ([6]; 1.00 % Wt, 82.53 mM): 105.0 ms | Partition Coefficient, Log P ([7]; contrast agent solution 0.5 %): (−0.15) − | Partition Coefficient, Log P ([7]; contrast agent solution 5 %): (−0.09) | R1 (T1 relaxivity estimate) [8]: R1 = 0.0979 | T1 relaxivity [8]: 0.0979 mM/s | T2* relaxivity [8]: ~0.618 mM/s | T2 relaxivity [8]: 0.502 mM/s | T1 ([8]; 8.25 mM): 980.805 | T2 ([8]; 8.25 mM): 74.85 | T2* ([8]; 8.25 mM): 141.415 | T2*-2 ([8]; 8.25 mM): 146.68 | T1 ([8]; 24.76 mM): 524.66 | T2 ([8]; 24.76 mM): 45.175 | T2* ([8]; 24.76 mM): 50.42 | T2*-2 ([8]; 24.76 mM): 52.755 | T1 ([8]; 41.27 mM): 533.955 | T2 ([8]; 41.27 mM): 31.14 | T2* ([8]; 41.27 mM): 32.37 | T2*-2 ([8]; 41.27 mM): 34.135 | T1 ([8]; 61.9 mM): 160.45 | T2 ([8]; 61.9 mM): 22.96 | T2* ([8]; 61.9 mM): 24.85 | T2*-2 ([8]; 61.9 mM): 25.55 | T1 ([8]; 82.53 mM): 116.5 | T2 ([8]; 82.53 mM): 20.84 | T2* ([8]; 82.53 mM): 17.99 | T2*-2 ([8]; 82.53 mM): 17.64 | pH ([9]; contrast agent solution 0.5 %): 6.1 | pH ([9]; contrast agent solution 5 %): 3.2 | Viscosity ([10]; contrast agent solution 0.5 %): 1.0 cP | Viscosity ([10]; contrast agent solution 5 %): 1.1 cP

L-PG-Bz-DTPA-Gd
T1 relaxivity [11]: 25 mM⁻¹ s⁻¹ | T1 relaxivity, times greater than that of Gd-DTPA [11]: more than 6 times
